Drawing on US10793580B2, “Substituted pyrazoloazepin-8-ones and their use as phosphodiesterase inhibitors” (LEO Pharma A/S, priority 2016, dated 2020), this text covers IC50 for 26 compounds.

Molecules are shown by their SMILES.

Chain of human PDE4D catalytic domain (Q08499 380-740): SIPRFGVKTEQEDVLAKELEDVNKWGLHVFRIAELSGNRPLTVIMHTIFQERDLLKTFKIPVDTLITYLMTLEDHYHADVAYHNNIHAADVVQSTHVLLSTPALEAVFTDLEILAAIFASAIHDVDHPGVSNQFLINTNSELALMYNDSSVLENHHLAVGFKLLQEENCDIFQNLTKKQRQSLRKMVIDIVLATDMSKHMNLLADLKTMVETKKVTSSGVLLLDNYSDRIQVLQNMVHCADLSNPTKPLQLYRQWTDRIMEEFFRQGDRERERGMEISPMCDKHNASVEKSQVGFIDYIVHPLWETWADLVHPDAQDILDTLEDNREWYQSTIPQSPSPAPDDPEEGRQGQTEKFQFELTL

The test addresses human PDE4D catalytic domain (Homo sapiens (Human), UniProt Q08499). The test is described as follows: PDE4 Assay (TR-FRET, FAM-cAMP cleavage). The class given is biochemical. Particulars: human PDE4D catalytic domain (UniProt Q08499 [S380-L740]); 50% inhibition of substrate cleavage; read-out: PDE4 IC50 range. A digest of the protocol:
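Readout is Tb-to-FAM time-resolved FRET after nanoparticle capture of AMP, the product of cleaving a cAMP/FAM-cAMP mixture by PDE4D catalytic domain (S380-L740) in the presence of titrated compound. Values are IC50 ranges in nM: concentration halving substrate cleavage relative to controls.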
(Time-resolved FRET reads energy transfer from a long-lived donor to a nearby acceptor.)
As to `CCn1nc(CC(C)(C)COC(=O)c2cccc(C(C)=O)c2)c2c1C(=O)NCC1(CCOCC1)C2` [Example 201, [3-(1-ethyl-8-oxo-spiro[6,7-dihydro-4H-pyrazolo[3,4-c]azepine-5,4′-tetrahydropyran]-3-yl)-2,2-dimethyl-propyl] 3-acetylbenzoate], the IC50 (usually the concentration at which inhibition is half-maximal) was less than 100 nM.
As for `CCn1nc(CC(C)(C)COC(=O)c2ccc(S(C)(=O)=O)cc2)c2c1C(=O)NCC1(CCOCC1)C2` [Example 202, [3-(1-ethyl-8-oxo-spiro[6,7-dihydro-4H-pyrazolo[3,4-c]azepine-5,4′-tetrahydropyran]-3-yl)-2,2-dimethyl-propyl] 4-methylsulfonylbenzoate], the IC50 was less than 100 nM.
Turning to `CCn1nc(CC(C)(C)COC(=O)c2ccc(S(=O)(=O)CC)cc2)c2c1C(=O)NCC1(CCOCC1)C2` [Example 203, [3-(1-ethyl-8-oxo-spiro[6,7-dihydro-4H-pyrazolo[3,4-c]azepine-5,4′-tetrahydropyran]-3-yl)-2,2-dimethyl-propyl] 4-ethylsulfonylbenzoate], the IC50 is less than 100 nM.
For `CCn1nc(CC(C)(C)COC(=O)c2cccc(S(=O)(=O)CC)c2)c2c1C(=O)NCC1(CCOCC1)C2` [Example 204, [3-(1-ethyl-8-oxo-spiro[6,7-dihydro-4H-pyrazolo[3,4-c]azepine-5,4′-tetrahydropyran]-3-yl)-2,2-dimethyl-propyl] 3-ethylsulfonylbenzoate], the IC50 is less than 100 nM.
On to `CCn1nc(CC(C)(C)COC(=O)c2ccc(S(=O)(=O)NC)cc2)c2c1C(=O)NCC1(CCOCC1)C2` [Example 205, [3-(1-ethyl-8-oxo-spiro[6,7-dihydro-4H-pyrazolo[3,4-c]azepine-5,4′-tetrahydropyran]-3-yl)-2,2-dimethyl-propyl] 4-(methylsulfamoyl)benzoate], for which the IC50 was less than 100 nM.
Under `CCn1nc(CC(C)(C)COC(=O)c2cccc(S(=O)(=O)C(C)C)c2)c2c1C(=O)NCC1(CCOCC1)C2` [Example 206, [3-(1-ethyl-8-oxo-spiro[6,7-dihydro-4H-pyrazolo[3,4-c]azepine-5,4′-tetrahydropyran]-3-yl)-2,2-dimethyl-propyl] 3-isopropylsulfonylbenzoate] stands less than 100 nM.
In the case of `CCn1nc(CC(C)(C)COC(=O)c2ccc(S(=O)(=O)C(C)C)cc2)c2c1C(=O)NCC1(CCOCC1)C2` [Example 207, [3-(1-ethyl-8-oxo-spiro[6,7-dihydro-4H-pyrazolo[3,4-c]azepine-5,4′-tetrahydropyran]-3-yl)-2,2-dimethyl-propyl] 4-isopropylsulfonylbenzoate], the IC50 was less than 100 nM.
Under `CCn1nc(CC(C)(C)COC(=O)c2ccc(S(=O)(=O)N(C)C)cc2)c2c1C(=O)NCC1(CCOCC1)C2` [Example 208, [3-(1-ethyl-8-oxo-spiro-[6,7-dihydro-4H-pyrazolo-[3,4-c]azepine-5,4′-tetra-hydropyran]-3-yl)-2,2-dimethyl-propyl] 4-(di-methylsulfamoyl)benzoate] stands less than 100 nM.
Under `CCn1nc(CC(C)(C)COC(=O)c2ccc(S(=O)(=O)C3CCCC3)cc2)c2c1C(=O)NCC1(CCOCC1)C2` [Example 209, [3-(1-ethyl-8-oxo-spiro[6,7-dihydro-4H-pyrazolo[3,4-c]azepine-5,4′-tetrahydropyran]-3-yl)-2,2-dimethyl-propyl] 4-cyclopentylsulfonylbenzoate] stands less than 100 nM; under `CCn1nc(CC(C)(C)COC(=O)c2cccc(S(=O)(=O)N3CCCC3)c2)c2c1C(=O)NCC1(CCOCC1)C2` [Example 210, [3-(1-ethyl-8-oxo-spiro[6,7-dihydro-4H-pyrazolo[3,4-c]azepine-5,4′-tetrahydropyran]-3-yl)-2,2-dimethyl-propyl] 3-pyrrolidin-1-ylsulfonylbenzoate], less than 100 nM; under `CCn1nc(CC(C)(C)COC(=O)c2ccc(S(=O)(=O)N3CCCC3)cc2)c2c1C(=O)NCC1(CCOCC1)C2` [Example 211, [3-(1-ethyl-8-oxo-spiro[6,7-dihydro-4H-pyrazolo[3,4-c]azepine-5,4′-tetrahydropyran]-3-yl)-2,2-dimethyl-propyl] 4-pyrrolidin-1-ylsulfonylbenzoate], less than 100 nM.
On to `CCn1nc(CC(C)(C)COC(=O)c2cccc(S(=O)(=O)N3CCOCC3)c2)c2c1C(=O)NCC1(CCOCC1)C2` [Example 212, [3-(1-ethyl-8-oxo-spiro[6,7-dihydro-4H-pyrazolo[3,4-c]azepine-5,4′-tetrahydropyran]-3-yl)-2,2-dimethyl-propyl] 3-morpholinosulfonylbenzoate], for which the IC50 is less than 100 nM.
Under `CCn1nc(CC(C)(C)COC(=O)c2ccc(S(=O)(=O)N3CCOCC3)cc2)c2c1C(=O)NCC1(CCOCC1)C2` [Example 213, [3-(1-ethyl-8-oxo-spiro[6,7-dihydro-4H-pyrazolo[3,4-c]azepine-5,4′-tetrahydropyran]-3-yl)-2,2-dimethyl-propyl] 4-morpholinosulfonylbenzoate] stands less than 100 nM; under `CCn1nc(CC(C)(C)COC(=O)c2ccc(S(=O)(=O)N(C)Cc3ccccc3)cc2)c2c1C(=O)NCC1(CCOCC1)C2` [Example 214, [3-(1-ethyl-8-oxo-spiro[6,7-dihydro-4H-pyrazolo[3,4-c]azepine-5,4′-tetrahydropyran]-3-yl)-2,2-dimethyl-propyl] 4-[benzyl(methyl)sulfamoyl] benzoate], less than 100 nM.
As for `CCn1nc(CC(C)(C)COC(=O)c2cccc(S(=O)(=O)N3CCN(C(C)=O)CC3)c2)c2c1C(=O)NCC1(CCOCC1)C2` [Example 215, [3-(1-ethyl-8-oxo-spiro[6,7-dihydro-4H-pyrazolo[3,4-c]azepine-5,4′-tetrahydropyran]-3-yl)-2,2-dimethyl-propyl] 3-(4-acetylpiperazin-1-yl)sulfonylbenzoate], the IC50 is less than 100 nM.
Turning to `CCn1nc(CC(C)(C)COC(=O)c2ccc(S(=O)(=O)N3CCN(C(C)=O)CC3)cc2)c2c1C(=O)NCC1(CCOCC1)C2` [Example 216, [3-(1-ethyl-8-oxo-spiro[6,7-dihydro-4H-pyrazolo[3,4-c]azepine-5,4′-tetrahydropyran]-3-yl)-2,2-dimethyl-propyl] 4-(4-acetylpiperazin-1-yl)sulfonylbenzoate], the IC50 is less than 100 nM.
To `CCn1nc(CC(C)(C)COC(=O)c2ccc(C(N)=O)cc2)c2c1C(=O)NCC1(CCOCC1)C2` [Example 218, [3-(1-ethyl-8-oxo-spiro[6,7-dihydro-4H-pyrazolo[3,4-c]azepine-5,4′-tetrahydropyran]-3-yl)-2,2-dimethyl-propyl] 4-carbamoylbenzoate] belongs less than 100 nM; to `CCn1nc(CC(C)(C)COC(=O)c2ccc(C(=O)NC)cc2)c2c1C(=O)NCC1(CCOCC1)C2` [Example 219, [3-(1-ethyl-8-oxo-spiro[6,7-dihydro-4H-pyrazolo[3,4-c]azepine-5,4′-tetrahydropyran]-3-yl)-2,2-dimethyl-propyl] 4-(methylcarbamoyl)benzoate], less than 100 nM.
To `CCn1nc(CC(C)(C)COC(=O)c2ccc(C(=O)N(C)C)cc2)c2c1C(=O)NCC1(CCOCC1)C2` [Example 220, [3-(1-ethyl-8-oxo-spiro[6,7-dihydro-4H-pyrazolo[3,4-c]azepine-5,4′-tetra-hydropyran]-3-yl)-2,2-dimethyl-propyl] 4-(di-methylcarbamoyl)benzoate] belongs less than 100 nM; to `CCn1nc(CC(C)(C)COC(=O)c2ccc(C(=O)N3CCCC3)cc2)c2c1C(=O)NCC1(CCOCC1)C2` [Example 221, [3-(1-ethyl-8-oxo-spiro[6,7-dihydro-4H-pyrazolo[3,4-c]azepine-5,4′-tetrahydro-pyran]-3-yl)-2,2-dimethyl-propyl] 4-(pyrrolidine-1-carbonyl)benzoate], less than 100 nM.
For the compound `CCn1nc(CC(C)(C)COC(=O)c2ccc(C(=O)N3CCCCC3)cc2)c2c1C(=O)NCC1(CCOCC1)C2` [Example 222, [3-(1-ethyl-8-oxo-spiro[6,7-dihydro-4H-pyrazolo[3,4-c]azepine-5,4′-tetrahydro-pyran]-3-yl)-2,2-dimethyl-propyl] 4-(piperidine-1-carbonyl)benzoate], the half-maximal inhibitory concentration (IC50) was less than 100 nM.
For the compound `CCn1nc(CC(C)(C)COC(=O)c2ccc(C(=O)N3CCOCC3)cc2)c2c1C(=O)NCC1(CCOCC1)C2` [Example 223, [3-(1-ethyl-8-oxo-spiro[6,7-dihydro-4H-pyrazolo[3,4-c]azepine-5,4′-tetrahydropyran]-3-yl)-2,2-dimethyl-propyl] 4-(morpholine-4-carbonyl)benzoate], the IC50 was less than 100 nM.
Regarding `CCn1nc(CC(C)(C)COC(=O)c2ccc(C(=O)N3CCN(C)CC3)cc2)c2c1C(=O)NCC1(CCOCC1)C2` [Example 224, [3-(1-ethyl-8-oxo-spiro[6,7-dihydro-4H-pyrazolo[3,4-c]azepine-5,4′-tetrahydro-pyran]-3-yl)-2,2-dimethyl-propyl] 4-(4-methyl-piperazine-1-carbonyl)-benzoate], the concentration for half-maximal inhibition (IC50) was less than 100 nM.
As to `CCn1nc(CC(C)(C)COC(=O)c2ccc(C(=O)N3CCN(C(C)=O)CC3)cc2)c2c1C(=O)NCC1(CCOCC1)C2` [Example 225, [3-(1-ethyl-8-oxo-spiro[6,7-dihydro-4H-pyrazolo[3,4-c]azepine-5,4'-tetrahydropyran]-3-yl)-2,2-dimethyl-propyl] 4-(4-acetylpiperazine-1-carbonyl)benzoate], the IC50 was less than 100 nM.
In the case of `CCn1nc(CC(C)(C)COC(=O)c2cccc(C(N)=O)c2)c2c1C(=O)NCC1(CCOCC1)C2` [Example 227, [3-(1-ethyl-8-oxo-spiro[6,7-dihydro-4H-pyrazolo[3,4-c]azepine-5,4′-tetrahydropyran]-3-yl)-2,2-dimethyl-propyl] 3-carbamoylbenzoate], the IC50 was less than 100 nM.
For the compound `CCn1nc(CC(C)(C)COC(=O)c2cccc(C(=O)NC)c2)c2c1C(=O)NCC1(CCOCC1)C2` [Example 228, [3-(1-ethyl-8-oxo-spiro[6,7-dihydro-4H-pyrazolo[3,4-c]azepine-5,4′-tetrahydropyran]-3-yl)-2,2-dimethyl-propyl] 3-(methylcarbamoyl)benzoate], the IC50 is less than 100 nM.
